Assay results taken from PubChem BioAssay (NCI).
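A five-concentration, 48-hour dose response in 96-well plates underlies each endpoint, interpolated linearly between surrounding concentrations. GI50: concentration for 50% inhibition of growth. At the TGI there is no net growth.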

How the values were obtained:
Assay in all cases: DTP human tumour cell line panel, 48 h
[1] = system: RPMI-8226 leukemia
[2] = system: TK-10 renal
[3] = system: HOP-92 NSCLC
[4] = system: CAKI-1 renal
[5] = system: DU-145 prostate
[6] = system: M14 melanoma
[7] = system: SR leukemia
[8] = system: EKVX NSCLC
[9] = system: UACC-62 melanoma
[10] = system: PC-3 prostate
[11] = system: A549 NSCLC
[12] = system: HCT-15 colon
[13] = system: SF-268 CNS
[14] = system: MCF7 breast
[15] = system: BT-549 breast
[16] = system: KM12 colon
[17] = system: CCRF-CEM leukemia
[18] = system: HS 578T breast
[19] = system: SW-620 colon
[20] = system: ACHN renal
[21] = system: SK-OV-3 ovarian
[22] = system: U251 CNS
[23] = system: K-562 leukemia
[24] = system: HT29 colon
[25] = system: SNB-19 CNS
[26] = system: OVCAR-5 ovarian
[27] = system: MDA-MB-231 breast
[28] = system: RXF 393 renal
[29] = system: UO-31 renal
[30] = system: A498 renal
[31] = system: SK-MEL-5 melanoma
[32] = system: HOP-62 NSCLC
[33] = system: NCI-H23 lung
[34] = system: SK-MEL-2 melanoma
[35] = system: SF-539 CNS
[36] = system: NCI/ADR-RES ovarian
[37] = system: NCI-H522 lung
[38] = system: HL-60(TB) leukemia
[39] = system: SNB-75 CNS
[40] = system: MDA-MB-435
[41] = system: HCC-2998 colon
[42] = system: SN12C renal
[43] = system: OVCAR-8 ovarian
[44] = system: MOLT-4 leukemia
[45] = system: 786-0 renal
[46] = system: MALME-3M melanoma
[47] = system: UACC-257 melanoma
[48] = system: NCI-H226 lung
[49] = system: T-47D breast
[50] = system: COLO 205 colon
[51] = system: NCI-H460 lung
[52] = system: HCT-116 colon
[53] = system: IGROV1 ovarian
[54] = system: OVCAR-4 ovarian
[55] = system: SF-295 CNS
[56] = system: SK-MEL-28 melanoma

`CN(Cc1ccccc1)S(=O)(=O)/N=C1\NC(=O)NC1=C(Cl)Cl` gave a GI50 [1] of 0.323 µM, a TGI [1] of 1.9 µM and a GI50 [2] of 2.47 µM. It also gave a TGI [2] of 29.9 µM, a GI50 [3] of 1.74 µM and a TGI [3] of 3.36 µM. It also gave a GI50 [4] of 1.67 µM, a TGI [4] of 3.12 µM and a GI50 [5] of 2.37 µM. It also gave a TGI [5] of 5.34 µM, a GI50 [6] of 1.76 µM and a TGI [6] of 3.51 µM. For the same compound, the GI50 [7] was 0.525 µM, the TGI [7] was 11.5 µM and the GI50 [8] was 1.84 µM. For the same compound, the TGI [8] was 3.81 µM, the GI50 [9] was 1.73 µM and the TGI [9] was 3.32 µM. For the same compound, the GI50 [10] was 2.02 µM, the TGI [10] was 4.39 µM and the GI50 [11] was 3.9 µM. For the same compound, the TGI [11] was 16.8 µM, the GI50 [12] was 1.52 µM and the TGI [12] was 3.11 µM. It also gave a GI50 [13] of 2.46 µM, a TGI [13] of 7.02 µM and a GI50 [14] of 0.338 µM. The TGI [14] was 13.5 µM, the GI50 [15] was 1.88 µM and the TGI [15] was 3.47 µM. For the same compound, the GI50 [16] was 0.27 µM, the TGI [16] was 0.744 µM and the GI50 [17] was 1.94 µM. It also gave a TGI [17] of 5.08 µM, a GI50 [18] of 2.82 µM and a TGI [18] of 8.87 µM. For the same compound, the GI50 [19] was 1.8 µM, the TGI [19] was 3.55 µM and the GI50 [20] was 1.77 µM. For the same compound, the TGI [20] was 3.19 µM, the GI50 [21] was 15.7 µM and the TGI [21] was 29.2 µM. For the same compound, the GI50 [22] was 1.83 µM, the TGI [22] was 3.53 µM and the GI50 [23] was 1.04 µM. It also gave a TGI [23] greater than 100 µM, a GI50 [24] of 2.07 µM and a TGI [24] of 4.72 µM. The GI50 [25] was 2.23 µM, the TGI [25] was 5.32 µM and the GI50 [26] was 1.69 µM. It also gave a TGI [26] of 3.17 µM, a GI50 [27] of 1.79 µM and a TGI [27] of 3.3 µM. It also gave a GI50 [28] of 1.8 µM, a TGI [28] of 3.51 µM and a GI50 [29] of 2.45 µM. For the same compound, the TGI [29] was 10.4 µM, the GI50 [30] was 2.19 µM and the TGI [30] was 6.31 µM. The GI50 [31] was 2.05 µM, the TGI [31] was 4.27 µM and the GI50 [32] was 3.01 µM. For the same compound, the TGI [32] was 11.5 µM, the GI50 [33] was 1.79 µM and the TGI [33] was 3.55 µM. It also gave a GI50 [34] of 2.76 µM, a TGI [34] of 7.84 µM and a GI50 [35] of 1.74 µM. It also gave a TGI [35] of 3.25 µM, a GI50 [36] of 2.1 µM and a TGI [36] of 4.96 µM. It also gave a GI50 [37] of 1.99 µM, a TGI [37] of 4.31 µM and a GI50 [38] of 2.08 µM. For the same compound, the TGI [38] was 5.35 µM, the GI50 [39] was 2.04 µM and the TGI [39] was 9.32 µM. The GI50 [40] was 1.8 µM, the TGI [40] was 3.45 µM and the GI50 [41] was 1.73 µM. It also gave a TGI [41] of 3.3 µM, a GI50 [42] of 1.81 µM and a TGI [42] of 3.38 µM. It also gave a GI50 [43] of 2.37 µM, a TGI [43] of 6.26 µM and a GI50 [44] of 2.52 µM. The TGI [44] was 7.03 µM, the GI50 [45] was 2.06 µM and the TGI [45] was 4.6 µM. For the same compound, the GI50 [46] was 1.79 µM, the TGI [46] was 3.48 µM and the GI50 [47] was 2.22 µM. For the same compound, the TGI [47] was 5.29 µM, the GI50 [48] was 2.21 µM and the TGI [48] was 5.42 µM. The GI50 [49] was 1.59 µM, the TGI [49] was 21.8 µM and the GI50 [50] was 1.96 µM. The TGI [50] was 3.98 µM, the GI50 [51] was 2.39 µM and the TGI [51] was 5.68 µM. For the same compound, the GI50 [52] was 1.94 µM, the TGI [52] was 3.81 µM and the GI50 [53] was 1.88 µM. The TGI [53] was 3.75 µM, the GI50 [54] was 1.84 µM and the TGI [54] was 3.64 µM. It also gave a GI50 [55] of 3.51 µM, a TGI [55] of 12.2 µM and a GI50 [56] of 1.77 µM. It also gave a TGI [56] of 3.29 µM.
